Measured values published in the NIST ThermoML archive (doi:10.1021/acs.jced.8b00554).

Experiment: xn = mol fraction of the nth substance listed
Conditions: 313.15 K, Liquid, Vibrating tube method

CCCCCCCC [octane] + CCCO
Conditions	mass density [kg/m3]
100 kPa, x2 = 0.1631	693.18
100 kPa, x2 = 0.2111	695.76
100 kPa, x2 = 0.3158	701.99
100 kPa, x2 = 0.4411	711
100 kPa, x2 = 0.7301	740.14
100 kPa, x2 = 0.8823	763.46
1000 kPa, x2 = 0.1631	694.31
1000 kPa, x2 = 0.4411	712.19
1010 kPa, x2 = 0.2111	696.95
1010 kPa, x2 = 0.3158	703.21
1010 kPa, x2 = 0.7301	741.33
1010 kPa, x2 = 0.8823	764.37
2000 kPa, x2 = 0.7301	742.25
2010 kPa, x2 = 0.1631	695.26
2010 kPa, x2 = 0.2111	697.87
2010 kPa, x2 = 0.3158	704.14
2010 kPa, x2 = 0.4411	713.12
2010 kPa, x2 = 0.8823	765.24
3000 kPa, x2 = 0.2111	698.81
3000 kPa, x2 = 0.4411	714.05
3000 kPa, x2 = 0.7301	743.18
3010 kPa, x2 = 0.3158	705.04
3020 kPa, x2 = 0.1631	696.19
3020 kPa, x2 = 0.8823	766.13
4000 kPa, x2 = 0.2111	699.72
4000 kPa, x2 = 0.4411	714.95
4010 kPa, x2 = 0.3158	705.98
4010 kPa, x2 = 0.7301	744.05
4020 kPa, x2 = 0.1631	697.09
4020 kPa, x2 = 0.8823	767
5000 kPa, x2 = 0.1631	698.01
5000 kPa, x2 = 0.3158	706.86
5000 kPa, x2 = 0.8823	767.9
5010 kPa, x2 = 0.2111	700.64
5010 kPa, x2 = 0.7301	744.95
5020 kPa, x2 = 0.4411	715.86
6010 kPa, x2 = 0.2111	701.53
6010 kPa, x2 = 0.4411	716.76
6010 kPa, x2 = 0.7301	745.83
6010 kPa, x2 = 0.8823	768.74
6020 kPa, x2 = 0.1631	698.89
6020 kPa, x2 = 0.3158	707.76
7000 kPa, x2 = 0.3158	708.66
7010 kPa, x2 = 0.7301	746.74
7020 kPa, x2 = 0.1631	699.79
7020 kPa, x2 = 0.2111	702.4
7020 kPa, x2 = 0.4411	717.65
7020 kPa, x2 = 0.8823	769.63
8000 kPa, x2 = 0.1631	700.66
8010 kPa, x2 = 0.3158	709.55
8010 kPa, x2 = 0.4411	718.55
8010 kPa, x2 = 0.7301	747.6
8010 kPa, x2 = 0.8823	770.46
8020 kPa, x2 = 0.2111	703.3
9000 kPa, x2 = 0.3158	710.41
9000 kPa, x2 = 0.4411	719.39
9000 kPa, x2 = 0.7301	748.46
9010 kPa, x2 = 0.1631	701.54
9020 kPa, x2 = 0.2111	704.17
9020 kPa, x2 = 0.8823	771.29
10000 kPa, x2 = 0.2111	705.02
10010 kPa, x2 = 0.1631	702.41
10010 kPa, x2 = 0.4411	720.29
10010 kPa, x2 = 0.7301	749.32
10020 kPa, x2 = 0.3158	711.31
10020 kPa, x2 = 0.8823	772.16
11000 kPa, x2 = 0.1631	703.29
11000 kPa, x2 = 0.8823	772.97
11010 kPa, x2 = 0.3158	712.17
11010 kPa, x2 = 0.7301	750.16
11020 kPa, x2 = 0.2111	705.91
11020 kPa, x2 = 0.4411	721.14
12010 kPa, x2 = 0.1631	704.11
12010 kPa, x2 = 0.2111	706.77
12010 kPa, x2 = 0.3158	712.99
12010 kPa, x2 = 0.7301	751
12020 kPa, x2 = 0.4411	722
12020 kPa, x2 = 0.8823	773.81
13000 kPa, x2 = 0.4411	722.85
13000 kPa, x2 = 0.8823	774.61
13010 kPa, x2 = 0.1631	704.97
13010 kPa, x2 = 0.3158	713.85
13010 kPa, x2 = 0.7301	751.83
13020 kPa, x2 = 0.2111	707.6
14010 kPa, x2 = 0.3158	714.67
14020 kPa, x2 = 0.1631	705.8
14020 kPa, x2 = 0.2111	708.41
14020 kPa, x2 = 0.4411	723.68
14020 kPa, x2 = 0.7301	752.64
14020 kPa, x2 = 0.8823	775.41
15000 kPa, x2 = 0.4411	724.48
15010 kPa, x2 = 0.2111	709.26
15010 kPa, x2 = 0.3158	715.49
15010 kPa, x2 = 0.7301	753.46
